Assay results: ChEMBL document CHEMBL3421625, “Discovery and optimization of novel antagonists to the human neurokinin-3 receptor for the treatment of sex-hormone disorders (Part I)” (J Med Chem, 2015)
Converted amounts (≈) assume the structure as drawn.

What was measured:
[1] = Lipophilicity, log D of the compound at pH 7.4; assay type: physicochemical; conditions: buffer
[2] = Solubility of the compound in PBS buffer at pH 7.4 by shake-flask method; assay type: physicochemical
Cytochrome P450 3A4 = Cytochrome P450 3A4 (Homo sapiens, UniProt P08684); assay: Inhibition of CYP3A4 (unknown origin) by luciferase reporter assay in presence of NADPH regeneration system; assay type: ADME
Sequence of Cytochrome P450 3A4 (P08684 whole entry): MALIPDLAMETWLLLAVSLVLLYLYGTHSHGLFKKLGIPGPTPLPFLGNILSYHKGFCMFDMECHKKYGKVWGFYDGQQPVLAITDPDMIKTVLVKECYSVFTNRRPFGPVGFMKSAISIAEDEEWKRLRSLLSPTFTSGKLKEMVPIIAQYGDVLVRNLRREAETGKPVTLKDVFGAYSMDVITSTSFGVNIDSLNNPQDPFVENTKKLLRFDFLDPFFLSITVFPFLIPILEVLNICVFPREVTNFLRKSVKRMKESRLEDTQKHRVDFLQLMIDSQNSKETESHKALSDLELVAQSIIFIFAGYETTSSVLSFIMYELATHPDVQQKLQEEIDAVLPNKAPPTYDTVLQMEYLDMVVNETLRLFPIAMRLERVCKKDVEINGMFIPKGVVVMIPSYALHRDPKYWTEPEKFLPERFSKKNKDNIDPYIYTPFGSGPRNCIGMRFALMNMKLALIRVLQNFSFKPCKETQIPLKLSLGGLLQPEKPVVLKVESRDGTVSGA

Cytochrome P450 2D6 = Cytochrome P450 2D6 (Homo sapiens, UniProt P10635); assay: Inhibition of CYP2D6 (unknown origin) by luciferase reporter assay in presence of NADPH regeneration system; assay type: ADME
Sequence of Cytochrome P450 2D6 (P10635 whole entry): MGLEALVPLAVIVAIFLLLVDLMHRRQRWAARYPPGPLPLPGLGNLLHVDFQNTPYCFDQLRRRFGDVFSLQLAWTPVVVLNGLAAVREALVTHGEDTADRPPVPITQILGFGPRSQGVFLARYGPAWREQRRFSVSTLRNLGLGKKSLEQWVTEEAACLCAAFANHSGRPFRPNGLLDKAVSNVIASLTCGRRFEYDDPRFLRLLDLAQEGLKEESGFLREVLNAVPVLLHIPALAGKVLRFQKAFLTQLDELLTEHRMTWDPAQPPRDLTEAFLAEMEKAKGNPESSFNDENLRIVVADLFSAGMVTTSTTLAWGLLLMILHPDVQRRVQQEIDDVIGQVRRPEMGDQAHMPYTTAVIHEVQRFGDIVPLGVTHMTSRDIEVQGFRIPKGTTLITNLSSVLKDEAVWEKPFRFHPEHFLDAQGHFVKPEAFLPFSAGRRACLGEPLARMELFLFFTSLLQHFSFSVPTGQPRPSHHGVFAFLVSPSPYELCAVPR

Cytochrome P450 2C9 = Cytochrome P450 2C9 (Homo sapiens, UniProt P11712); assay: Inhibition of CYP2C9 (unknown origin) by luciferase reporter assay in presence of NADPH regeneration system; assay type: ADME
Sequence of Cytochrome P450 2C9 (P11712 whole entry): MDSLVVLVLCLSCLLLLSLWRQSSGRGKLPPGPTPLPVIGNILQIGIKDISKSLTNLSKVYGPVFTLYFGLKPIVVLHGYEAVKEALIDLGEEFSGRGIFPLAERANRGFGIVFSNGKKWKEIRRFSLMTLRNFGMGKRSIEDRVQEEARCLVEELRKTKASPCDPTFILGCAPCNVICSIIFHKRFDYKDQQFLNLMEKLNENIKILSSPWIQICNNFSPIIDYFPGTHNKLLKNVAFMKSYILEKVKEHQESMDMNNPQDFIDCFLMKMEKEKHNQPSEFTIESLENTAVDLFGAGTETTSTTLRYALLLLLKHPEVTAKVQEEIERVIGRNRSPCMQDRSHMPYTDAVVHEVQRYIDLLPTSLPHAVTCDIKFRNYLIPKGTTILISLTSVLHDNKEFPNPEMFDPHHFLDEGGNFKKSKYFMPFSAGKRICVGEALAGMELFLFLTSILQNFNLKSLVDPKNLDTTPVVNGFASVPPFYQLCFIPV

Cytochrome P450 2C19 = Cytochrome P450 2C19 (Homo sapiens, UniProt P33261); assay: Inhibition of CYP2C19 (unknown origin) by luciferase reporter assay in presence of NADPH regeneration system
Sequence of Cytochrome P450 2C19 (P33261 whole entry): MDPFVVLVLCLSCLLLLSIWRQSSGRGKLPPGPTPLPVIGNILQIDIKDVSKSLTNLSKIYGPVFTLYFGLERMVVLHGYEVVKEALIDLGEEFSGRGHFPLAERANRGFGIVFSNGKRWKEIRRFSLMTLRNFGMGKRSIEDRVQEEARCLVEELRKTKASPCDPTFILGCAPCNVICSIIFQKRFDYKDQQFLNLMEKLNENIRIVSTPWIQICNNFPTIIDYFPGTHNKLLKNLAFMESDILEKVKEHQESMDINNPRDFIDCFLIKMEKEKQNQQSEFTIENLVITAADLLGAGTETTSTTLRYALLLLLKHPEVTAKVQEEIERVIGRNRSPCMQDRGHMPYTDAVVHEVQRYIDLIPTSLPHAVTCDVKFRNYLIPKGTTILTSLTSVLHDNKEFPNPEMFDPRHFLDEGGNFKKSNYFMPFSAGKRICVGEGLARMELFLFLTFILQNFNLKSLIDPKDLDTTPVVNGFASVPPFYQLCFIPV

Cytochrome P450 1A2 = molecular target: T1, Cytochrome P450 1A2 (Homo sapiens, UniProt P05177); assay: Inhibition of CYP1A2 (unknown origin) by luciferase reporter assay in presence of NADPH regeneration system; assay type: ADME
T1 sequence (P05177 whole entry): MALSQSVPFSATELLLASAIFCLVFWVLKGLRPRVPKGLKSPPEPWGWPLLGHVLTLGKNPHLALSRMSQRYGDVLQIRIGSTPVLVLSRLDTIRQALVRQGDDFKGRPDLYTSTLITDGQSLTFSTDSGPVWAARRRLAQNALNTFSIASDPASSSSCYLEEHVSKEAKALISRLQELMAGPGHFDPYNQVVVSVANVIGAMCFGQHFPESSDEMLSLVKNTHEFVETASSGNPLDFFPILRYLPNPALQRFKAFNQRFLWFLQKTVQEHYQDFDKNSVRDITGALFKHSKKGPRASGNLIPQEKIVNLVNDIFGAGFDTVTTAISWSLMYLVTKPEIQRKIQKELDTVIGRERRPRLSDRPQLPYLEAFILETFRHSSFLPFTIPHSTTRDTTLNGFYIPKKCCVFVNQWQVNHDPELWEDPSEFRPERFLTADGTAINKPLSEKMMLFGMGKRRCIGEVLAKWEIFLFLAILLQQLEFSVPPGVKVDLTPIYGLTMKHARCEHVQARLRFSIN

[3] = molecular target: T2, Gonadotropin-releasing hormone receptor (Homo sapiens) (UniProt P30968); assay: Inhibition of GnRH-R (unknown origin) at 10 uM relative to control
T2 sequence (whole entry): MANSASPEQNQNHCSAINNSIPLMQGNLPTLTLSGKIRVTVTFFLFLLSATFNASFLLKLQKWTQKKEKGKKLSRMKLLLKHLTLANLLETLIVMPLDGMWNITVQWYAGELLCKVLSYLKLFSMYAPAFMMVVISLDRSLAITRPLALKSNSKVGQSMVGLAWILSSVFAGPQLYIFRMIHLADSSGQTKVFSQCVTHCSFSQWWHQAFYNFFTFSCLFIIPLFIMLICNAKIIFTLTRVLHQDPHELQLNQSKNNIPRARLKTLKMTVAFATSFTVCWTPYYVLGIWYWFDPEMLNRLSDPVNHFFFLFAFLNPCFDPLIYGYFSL

[4] = Fraction unbound in rat plasma at 5 uM after 4 hrs by equilibrium dialysis method; assay type: ADME, cell-free
[5] = Total systemic clearance in Sprague-Dawley rat at 1 mg/kg, iv by LC-MS/MS analysis; assay type: ADME, organism-based; set-up: dose 1 mg/kg, route intravenous; conditions: in vivo
Rattus norvegicus [6] = assay: Unbound AUC in Sprague-Dawley rat at 1 mg/kg, iv by LC-MS/MS analysis; assay type: ADME, organism-based; set-up: dose 1 mg/kg, route intravenous; conditions: in vivo
Rattus norvegicus [7] = assay: Unbound AUC in Sprague-Dawley rat at 3 mg/kg, po by LC-MS/MS analysis; assay type: ADME, organism-based; set-up: dose 3 mg/kg, route oral; conditions: in vivo
Rattus norvegicus [8] = assay: Unbound Cmax in Sprague-Dawley rat at 3 mg/kg, po by LC-MS/MS analysis; assay type: ADME, organism-based; set-up: dose 3 mg/kg, route oral; conditions: in vivo
[9] = Fraction unbound in rat brain at 5 uM after 4 hrs by equilibrium dialysis method; assay type: ADME, tissue-based
[10] = Ratio of unbound drug level in brain to plasma in Sprague-Dawley rat at 1 mg/kg, iv measured at 10 mins; conditions: brain and plasma
[11] = Ratio of unbound drug level in brain to plasma in Sprague-Dawley rat at 1 mg/kg, iv measured at 60 mins; conditions: brain and plasma
NK-3 receptor = molecular target: T3, NK-3 receptor (Macaca mulatta, UniProt Q2WGM0)
T3 sequence (Q2WGM0 whole entry): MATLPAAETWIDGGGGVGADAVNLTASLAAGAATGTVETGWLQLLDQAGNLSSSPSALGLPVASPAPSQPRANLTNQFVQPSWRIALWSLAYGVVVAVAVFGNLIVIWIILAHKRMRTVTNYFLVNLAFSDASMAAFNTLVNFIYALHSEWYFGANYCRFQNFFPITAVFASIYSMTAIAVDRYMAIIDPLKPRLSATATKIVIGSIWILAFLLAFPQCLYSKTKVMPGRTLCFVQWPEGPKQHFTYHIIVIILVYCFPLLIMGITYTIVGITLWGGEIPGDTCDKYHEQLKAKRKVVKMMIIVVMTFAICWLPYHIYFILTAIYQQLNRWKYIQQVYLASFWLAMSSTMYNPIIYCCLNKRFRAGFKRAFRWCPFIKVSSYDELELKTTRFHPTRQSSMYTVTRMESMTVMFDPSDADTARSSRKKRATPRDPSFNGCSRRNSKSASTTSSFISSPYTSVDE
Description: Displacement of [3H]-SB222200 from monkey NK3R after 90 mins by scintillation counting analysis

Neuromedin-K receptor = molecular target: T4, Neuromedin-K receptor (Rattus norvegicus, UniProt P16177)
T4 sequence (P16177 whole entry): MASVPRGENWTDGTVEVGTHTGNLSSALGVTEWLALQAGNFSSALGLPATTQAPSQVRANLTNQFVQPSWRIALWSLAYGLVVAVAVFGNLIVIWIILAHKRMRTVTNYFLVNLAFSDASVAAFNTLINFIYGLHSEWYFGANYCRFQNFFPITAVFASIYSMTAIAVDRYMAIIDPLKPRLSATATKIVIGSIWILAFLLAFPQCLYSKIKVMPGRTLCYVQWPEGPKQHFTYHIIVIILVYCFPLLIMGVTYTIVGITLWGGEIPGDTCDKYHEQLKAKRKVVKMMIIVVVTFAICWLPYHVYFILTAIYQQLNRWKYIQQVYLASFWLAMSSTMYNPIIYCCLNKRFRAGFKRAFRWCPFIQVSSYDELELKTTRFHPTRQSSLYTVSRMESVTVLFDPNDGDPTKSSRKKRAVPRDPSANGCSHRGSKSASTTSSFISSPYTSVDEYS
Description: Displacement of [3H]-SB222200 from rat NK3R after 90 mins by scintillation counting analysis

Substance-P receptor = Substance-P receptor (Homo sapiens, UniProt P25103)
Sequence of Substance-P receptor (P25103 whole entry): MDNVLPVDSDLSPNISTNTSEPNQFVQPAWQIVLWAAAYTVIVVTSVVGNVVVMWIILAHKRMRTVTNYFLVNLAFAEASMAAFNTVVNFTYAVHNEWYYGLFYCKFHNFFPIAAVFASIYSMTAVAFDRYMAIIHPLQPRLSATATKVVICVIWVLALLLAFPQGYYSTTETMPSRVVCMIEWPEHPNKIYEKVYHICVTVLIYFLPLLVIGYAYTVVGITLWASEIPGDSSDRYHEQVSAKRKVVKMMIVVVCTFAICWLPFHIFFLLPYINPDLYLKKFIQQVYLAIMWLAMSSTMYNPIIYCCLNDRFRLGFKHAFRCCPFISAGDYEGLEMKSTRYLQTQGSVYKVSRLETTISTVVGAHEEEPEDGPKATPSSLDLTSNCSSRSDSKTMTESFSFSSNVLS
Description: Displacement of [3H]-Substance P from human NK1R after 90 mins by scintillation counting analysis

in vivo [12] = conditions: Sprague-Dawley, rat, iv, 1 mg/kg
Description: Volume of distribution at steady state in Sprague-Dawley rat at 1 mg/kg, iv by LC-MS/MS analysis

in vivo [13] = conditions: Sprague-Dawley, rat, po, 3 mg/kg
[14] = Apparent permeability across basolateral to apical side in human Caco2 cells in presence of 0.1% bovine serum albumin; conditions: Caco-2

Structure (SMILES) | solubility thermodynamic [2] | IC50 (Cytochrome P450 3A4) | IC50 (Cytochrome P450 2D6) | IC50 (Cytochrome P450 2C9) | IC50 (Cytochrome P450 2C19) | IC50 (Cytochrome P450 1A2) | inhibition [3] | fraction unbound at 4 h, 5 µM [4] | clearance [5] | fAUC (Rattus norvegicus [6]) | fAUC (Rattus norvegicus [7]) | fCmax (Rattus norvegicus [8]) | fraction unbound at 4 h, 5 µM [9] | Kp uu at 10 min [10] | Kp uu at 1 h [11] | Ki (NK-3 receptor) | Ki (Neuromedin-K receptor) | Vd (in vivo [12]) | Tmax (in vivo [13]) | also measured
C[C@@H]1c2nnc(-c3csc(-c4ccc(F)cc4F)n3)n2CCN1C(=O)c1ccc(-c2cccs2)cc1 | 0.4 µM (≈ 0.208 µg/mL) | 19 µM | 7 µM | 3 µM | 4 µM | 21 µM | 35% | 0.0008 | 8.9 mL/min/kg | 0.2 µM·min | 0.1 µM·min | 0.14 nM | 0.001 | 1.9 | 2.5 | 0.00398 µM | 0.013 µM | 4.1 L/kg | 45 min | logD [1]: 5; Ki (Substance-P receptor): 1.26 µM
Cc1nc(-c2nnc3n2CCN(C(=O)c2ccc(-c4cccs4)cc2)[C@@H]3C)cs1 | 118 µM (≈ 49.7 µg/mL) | 50 µM | > 100 µM | 21 µM | 34 µM | 26 µM | 30% | 0.055 | 7.4 mL/min/kg | 16.9 µM·min | 60.3 µM·min | 443 nM | 0.028 | 0.2 | 0.1 | 0.02 µM | 0.076 µM | 1.4 L/kg | 45 min | logD ([1]; read-out: logD): 3.1; Papp B→A [14]: 52.9 ×10⁻⁶ cm/s
